What was measured:
acid phosphatase (ACP) [1] = details: citrate acid buffer, 37°C; no inhibitor; tissue homogenate supernatant
[2] = system: alkaline phosphatase (ALP); details: glycine-NaOH buffer, MgCl2, 37°C; no inhibitor; tissue homogenate supernatant
[3] = system: T1, acetylcholinesterase (AChE); experiment: Ellman assay, […] nm, Lineweaver-Burk; type: biochemical, Lymnaea acuminata; details: pH 8.0, 25°C; no inhibitor; tissue homogenate supernatant
T1 construct: native, crude nervous tissue homogenate supernatant (1000 g), not purified

[4] = biological target: T1, acetylcholinesterase (AChE); experiment: Ellman assay, […] nm; type: biochemical, Lymnaea acuminata; details: acetylthiocholine iodide, pH 8.0, 25°C, 15 min preincubation; tissue homogenate supernatant; competitive noncompetitive
[5] = biological target: T2, alkaline phosphatase (ALP); experiment: 4-nitrophenol release, […] nm; type: biochemical, Lymnaea acuminata; details: 4-nitrophenyl phosphate, glycine-NaOH buffer, MgCl2, 37°C, 15 min preincubation at 25°C, tissue homogenate supernatant
T2 construct: native, crude nervous tissue homogenate supernatant (5000 g), not purified; isoenzyme not identified

acid phosphatase (ACP) [6] = biological target: T3, acid phosphatase (ACP); experiment: 4-nitrophenol release, […] nm; type: biochemical, Lymnaea acuminata; details: 4-nitrophenyl phosphate, citrate acid buffer, 37°C, 15 min preincubation at 25°C, tissue homogenate supernatant
T3 construct: native, crude nervous tissue homogenate supernatant (5000 g), not purified; isoenzyme not identified

## O=[N+]([O-])c1ccc(OP(=O)(O)O)cc1 [4-nitrophenyl phosphate]
Acid phosphatase (ACP) [1]
  Km: 13.7 µM
[2]
  Km: 20 µM

## CC(=O)SCC[N+](C)(C)C [acetylthiocholine iodide]
[3]
  Km: 317 µM

## C=CCc1cc(OC)c2c(c1)OCO2 [myristicin, 4-methoxy-6-(2-propenyl)-1,3-benzodioxole]
[4]
  IC50: 30 µM
[5]; uncompetitive
  IC50: 60 µM
Acid phosphatase (ACP) [6]; competitive
  IC50: 70 µM

## CCCCCCCCCCCCCC(=O)OCC(COC(=O)CCCCCCCCCCCCC)OC(=O)CCCCCCCCCCCCC [trimyristin, 1,2,3-tritetradecanoylglycerol]
[4]
  IC50: 110 µM
[5]; competitive noncompetitive
  IC50: 180 µM
Acid phosphatase (ACP) [6]; uncompetitive
  IC50: 160 µM

Reference: paper PMC2963183, “Enzyme Inhibition by Molluscicidal Components of Myristica fragrans Houtt. in the Nervous Tissue of Snail Lymnaea acuminata” (Enzyme Research, 2009)
